From US6706663B2, “Herbicidal 3-heterocyclic substituted benzisothiazole and benzisoxazole compounds” (Wyeth, priority 2000, dated 2004)

Columns and labels:
[1] = system: ABUTH (Abutilon theophrasti); assay: Postemergence herbicidal evaluation; type: in vivo, Medic.; conditions: postemergence
Outline: (§1)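 Seedlings grown for about two weeks were sprayed postemergence and then kept under standard greenhouse care. Injury was rated visually 4–5 weeks after treatment on a 0–9 scale against untreated controls, and ratings from repeat tests were averaged.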

[2] = system: AMBEL (Ambrosia artemisifolia); assay: Postemergence herbicidal evaluation; type: in vivo, L.; conditions: postemergence
Outline: as §1

[3] = system: CHEAL (Chenopodium album); assay: Postemergence herbicidal evaluation; type: in vivo, L.; conditions: postemergence
Outline: as §1

GALAP (Galium aparine) [4] = assay: Postemergence herbicidal evaluation; type: in vivo; conditions: postemergence, rate 0.3000 kg/ha
Outline: as §1

[5] = system: IPOHE (Ipomoea hederacea); assay: Postemergence herbicidal evaluation; type: in vivo, (L.) Jacq.; conditions: postemergence
Outline: as §1

IPOSS (Ipomoea Spp.) [6] = assay: Postemergence herbicidal evaluation; type: in vivo; conditions: rate 0.3000 kg/ha
Method: (§2) In the tests, seedling plants are grown in jiffy flats for about two weeks. The test compounds are dispersed in 50/50 acetone/water mixtures containing 0.5% TWEEN® 20, a polyoxyethylene sorbitan monolaurate surfactant of Atlas Chemical Industries, in sufficient quantities to provide the equivalent of about 0.0040 kg to 1.000 kg per hectare of active compound when applied to the plants through a spray nozzle operating at 40 psi for a predetermined time. After spraying, the plants are placed on greenhouse benches and are cared for in accordance with conventional greenhouse procedures. From four to five weeks after treatment, the seedling plants are examined and rated according to the rating system set forth below. Where more than one test is involved for a given compound, the data are averaged.
(§3) Results of herbicide evaluation are expressed on a rating scale (0-9). The scale is based upon a visual observation of plant stand, vigor, malformation, size, chlorosis and overall plant appearance as compared with a control.

[7] = system: ECHCG (Echinochloa crus-galli); assay: Postemergence herbicidal evaluation; type: in vivo, (L.) Beau; conditions: postemergence
Outline: as §1

SETVI (Setaria viridis) [8] = assay: Postemergence herbicidal evaluation; type: in vivo, (L.) Beau; conditions: postemergence
Outline: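 Ratings use a 0-9 visual scale covering stand, vigor, malformation, size, chlorosis and appearance versus a control, scored 4-5 weeks post-spray. Roughly two-week-old seedlings received about 0.0040-1.000 kg/ha active, applied in 50/50 acetone/water with 0.5% TWEEN 20. Multiple tests per compound were averaged.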

[9] = system: GLXMAW (Soybean, Williams); assay: Postemergence herbicidal evaluation; type: in vivo, Glycine max, (L.) Merr. cv Williams; conditions: postemergence, rate 0.3000 kg/ha
Outline: as §1

GLXMA (Soybean) = assay: Postemergence herbicidal evaluation; type: in vivo, Glycine max, (L.) Merr.; conditions: postemergence
Method: as §2, §3

ORYSAT (Rice, Tebonnet) [10] = assay: Postemergence herbicidal evaluation; type: in vivo, Oryza sativa, (L.) Tebonnet; conditions: postemergence, rate 0.3000 kg/ha
Outline: as §1

[11] = system: TRZAWR (Wheat, Winter, cv Riband); assay: Postemergence herbicidal evaluation; type: in vivo, Triticum aestivum; conditions: postemergence, rate 0.3000 kg/ha
Outline: as §1

ZEAMX (Corn, Field) [12] = assay: Postemergence herbicidal evaluation; type: in vivo, Zea mays, L.; conditions: postemergence
Outline: as §1

[13] = system: ABUTH (Abutilon theophrasti); assay: Preemergence herbicidal evaluation; type: in vivo, Medic.; conditions: preemergence, rate 0.3000 kg/ha, rated 4-5 weeks after treatment
[14] = system: AMBEL (Ambrosia artemisifolia); assay: Preemergence herbicidal evaluation; type: in vivo, L.; conditions: preemergence, rate 0.3000 kg/ha, rated 4-5 weeks after treatment
Outline: (§4)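 Each species was sown separately in potting soil over roughly one inch of soil, and the surface sprayed with compound dissolved in aqueous acetone. Assessment used a 0–9 visual scale against a control after four to five weeks.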

[15] = system: CHEAL (Chenopodium album); assay: Preemergence herbicidal evaluation; type: in vivo, L.; conditions: preemergence, rate 0.3000 kg/ha, rated 4-5 weeks after treatment
Outline: as §4

GALAP (Galium aparine) [16] = assay: Preemergence herbicidal evaluation; type: in vivo; conditions: preemergence, rate 0.3000 kg/ha, rated 4-5 weeks after treatment
Outline: as §4

IPOSS (Ipomoea Spp.) [17] = assay: Preemergence herbicidal evaluation; type: in vivo; conditions: rate 0.3000 kg/ha, rated 4-5 weeks after treatment
Description: as §3
The preemergence herbicidal activity of the test compounds of the present invention is exemplified by the following tests in which the seeds of a variety of monocotyledonous and dicotyledonous plants are separately mixed with potting soil and planted on top of approximately one inch of soil in separate pint cups. After planting, the cups are sprayed with the selected aqueous acetone solution containing test compound in sufficient quantity to provide the equivalent of about […] per hectare of test compound per cup. The treated cups are then placed on greenhouse benches, watered and cared for in accordance with conventional greenhouse procedures. From four to five weeks after treatment, the tests are terminated and each cup is examined and rated according to the rating system provided in Example 87. The plant species used and the compounds evaluated are the same as those shown in Example 87.

[18] = system: ECHCG (Echinochloa crus-galli); assay: Preemergence herbicidal evaluation; type: in vivo, (L.) Beau; conditions: preemergence, rate 0.3000 kg/ha, rated 4-5 weeks after treatment
Outline: as §4

SETVI (Setaria viridis) [19] = assay: Preemergence herbicidal evaluation; type: in vivo, (L.) Beau; conditions: preemergence, rate 0.3000 kg/ha, rated 4-5 weeks after treatment
Outline: as §4

[20] = system: GLXMAW (Soybean, Williams); assay: Preemergence herbicidal evaluation; type: in vivo, Glycine max, (L.) Merr. cv Williams; conditions: preemergence, rate 0.3000 kg/ha, rated 4-5 weeks after treatment
ORYSAT (Rice, Tebonnet) [21] = assay: Preemergence herbicidal evaluation; type: in vivo, Oryza sativa, (L.) Tebonnet; conditions: preemergence, rate 0.3000 kg/ha, rated 4-5 weeks after treatment
[22] = system: TRZAWR (Wheat, Winter, cv Riband); assay: Preemergence herbicidal evaluation; type: in vivo, Triticum aestivum; conditions: preemergence, rate 0.3000 kg/ha, rated 4-5 weeks after treatment
Outline: as §4

ZEAMX (Corn, Field) [23] = assay: Preemergence herbicidal evaluation; type: in vivo, Zea mays, L.; conditions: preemergence, rate 0.3000 kg/ha, rated 4-5 weeks after treatment

SMILES: Cn1c(C(F)(F)F)cc(=O)n(-c2ccc3snc(C4(O)C(=O)NC(=N)C4(C)C)c3c2)c1=O (centres unmarked) [Compound 96]
- ABUTH herbicidal rating ([1]; rate 0.0320 kg/ha): 3.0
- ABUTH herbicidal rating ([1]; rate 0.0620 kg/ha): 4.0
- ABUTH herbicidal rating ([1]; rate 0.3000 kg/ha): 9.0
- AMBEL herbicidal rating ([2]; rate 0.0320 kg/ha): 4.0
- AMBEL herbicidal rating ([2]; rate 0.0620 kg/ha): 5.0
- AMBEL herbicidal rating ([2]; rate 0.3000 kg/ha): 6.0
- CHEAL herbicidal rating ([3]; rate 0.0320 kg/ha): 3.0
- CHEAL herbicidal rating ([3]; rate 0.0620 kg/ha): 4.0
- CHEAL herbicidal rating ([3]; rate 0.3000 kg/ha): 9.0
- GALAP herbicidal rating (GALAP (Galium aparine) [4]): 0.0
- IPOHE herbicidal rating ([5]; rate 0.0320 kg/ha): 3.0
- IPOHE herbicidal rating ([5]; rate 0.0620 kg/ha): 6.0
- IPOSS herbicidal rating (IPOSS (Ipomoea Spp.) [6]): 3.0
- ECHCG herbicidal rating ([7]; rate 0.0320 kg/ha): 1.0
- ECHCG herbicidal rating ([7]; rate 0.0620 kg/ha): 2.0
- ECHCG herbicidal rating ([7]; rate 0.3000 kg/ha): 0.0
- SETVI herbicidal rating (SETVI (Setaria viridis) [8]; rate 0.0320 kg/ha): 2.0
- SETVI herbicidal rating (SETVI (Setaria viridis) [8]; rate 0.0620 kg/ha): 2.0
- SETVI herbicidal rating (SETVI (Setaria viridis) [8]; rate 0.3000 kg/ha): 4.0
- GLXMAW herbicidal rating [9]: 5.0
- GLXMA herbicidal rating (GLXMA (Soybean); rate 0.0320 kg/ha): 5.5
- GLXMA herbicidal rating (GLXMA (Soybean); rate 0.0620 kg/ha): 6.0
- ORYSAT herbicidal rating (ORYSAT (Rice, Tebonnet) [10]): 0.0
- TRZAWR herbicidal rating [11]: 0.0
- ZEAMX herbicidal rating (ZEAMX (Corn, Field) [12]; rate 0.0320 kg/ha): 3.0
- ZEAMX herbicidal rating (ZEAMX (Corn, Field) [12]; rate 0.0620 kg/ha): 3.0
- ZEAMX herbicidal rating (ZEAMX (Corn, Field) [12]; rate 0.3000 kg/ha): 2.0
- Preemergence herbicidal rating ABUTH [13]: 6.0
- Preemergence herbicidal rating AMBEL [14]: 0.0
- Preemergence herbicidal rating CHEAL [15]: 7.0
- Preemergence herbicidal rating GALAP (GALAP (Galium aparine) [16]): 6.0
- Preemergence herbicidal rating IPOSS (IPOSS (Ipomoea Spp.) [17]): 4.0
- Preemergence herbicidal rating ECHCG [18]: 0.0
- Preemergence herbicidal rating SETVI (SETVI (Setaria viridis) [19]): 0.0
- Preemergence herbicidal rating GLXMAW [20]: 0.0
- Preemergence herbicidal rating ORYSAT (ORYSAT (Rice, Tebonnet) [21]): 0.0
- Preemergence herbicidal rating TRZAWR [22]: 0.0
- Preemergence herbicidal rating ZEAMX (ZEAMX (Corn, Field) [23]): 0.0
